Reference: US4649157A, “Pharmaceutical compositions containing 5-phenyl-1,3-dioxoalkenyl compounds” (G. D. Searle & Co., priority 1986, dated 1987)

test system: Leukotriene C4 (LTC4) and leukotriene D4 (LTD4) biosynthesis by cultured rat basophilic leukemia cells (RBL-1 cells); test: Inhibition of leukotriene biosynthesis (LTC4 and LTD4, ionophore-induced) in cultured RBL-1 cells, quantitated by radioimmunoassay; type: cell-based; details: LTC4 equivalents by [3H]-RIA
Experimental: Leukotriene C4 (LTC4) and leukotriene D4 (LTD4) biosynthesis by cultured rat basophilic leukemia cells (RBL-1 cells) was induced by incubation of the cells with an ionophore. See B. A. Jakschik, S. Falkenheim, and C. W. Parker, "Precursor Role of Arachidonic Acid in Release of Slow Reacting Substance from Rat Basophilic Leukemia Cells," Proc Natl. Acad. Sci. U.S.A., 74, 4577-4581 (1977). The LTC4 and LTD4 biosynthesis was quantitated at LTC4 equivalents by radioimmunoassay using the Leukotriene C4 [^3 H]-RIA Kit available commercially from New England Nuclear, 549 Albany Street, Boston, Mass. Compounds were screened initially at 10^-4 M or 10^-5 M and compared with nordihydroguaiaretic acid (the reference standard). A compound inhibiting leukotriene synthesis at any given concentration by at least 30% relative to the reference standard was considered active. […] Table A lists IC50 's for representative compounds of this invention.

Row | IC50 [µM] | SMILES
1 | 20 | CCOC(=O)CC(=O)C=Cc1ccccc1 [Example 1, ethyl 3-oxo-5-phenyl-4-pentenoate]
2 | 27 | CCOC(=O)CC(=O)C=Cc1cccc(Oc2ccccc2)c1 [Example 20, ethyl 3-oxo-5-(3-phenoxyphenyl)-4-pentenoate]
3 | 26.5 | CCOC(=O)CC(=O)C=Cc1cccc(Oc2ccc(Cl)cc2)c1 [Example 21, ethyl 5-[3-(4-chlorophenoxy)phenyl]-3-oxo-4-pentenoate]
4 | 67 | CCOC(=O)CC(=O)C=Cc1ccc(OC)cc1 [Example 23, ethyl 5-(4-methoxyphenyl)-3-oxo-4-pentenoate]
5 | 27.2 | CCOC(=O)CC(=O)C=Cc1cccc2ccccc12 [Example 27, ethyl 5-(1-naphthyl)-3-oxo-4-pentenoate]
